Source: patent US12351571B2, “Substituted quinoxaline compounds as inhibitors of FGFR tyrosine kinases” (ARRAY BIOPHARMA INC., priority 2018, dated 2025)

Key:
phosphorylated FGFR3 = phosphorylated FGFR3 (Homo sapiens (Human), UniProt P22607); assay: FGFR Enzyme Binding Assay (HTRF tracer displacement), FGFR3; details: 5 nM phosphorylated FGFR3, 60 minute incubation at 22° C.; read-out: FGFR3 Enz Binding IC50
Description: The potency of compounds inhibiting human isoforms of FGFR kinase was determined using Life Technologies' Homogeneous Time Resolved Fluorescence (HTRF)-based binding assay technology. An incubation was conducted with either 5 nM dephosphorylated FGFR1 (Array Biopharma, p1702; SEQ ID NO: 1, amino acids 458 to 765, dephosphorylated by co-expression with PTP1b (protein tyrosine phosphatase 1B)), 5 nM dephosphorylated FGFR2 (Life Technologies, Cat. No. PV4106 that had been dephosphorylated with Lambda protein phosphatase (New England Biolabs, cat #P0753)) or 5 nM phosphorylated FGFR3 (Array Biopharma, p1836; SEQ ID NO: 5, amino acids 449 to 759), 50 nM Kinase Tracer 236 (Life Technologies Cat. No. PR9078A), 2 nM Biotin-anti-6HIS (Life Technologies Cat. No. PV6090) and 2 nM Europium-Streptavidin (Life Technologies Cat. No. PV6025) along with test compound in a buffer consisting of 50 mM HEPES ((4-(2-hydroxyethyl)-1-piperazineethanesulfonic acid, pH 7.5), 5 mM MgCl2, 0.005% Triton X-100, 1 mM DTT, 1 mM NaVO4 and 2% DMSO in a final volume of 12 μL Compounds were typically prepared as a 3-fold or 4-fold serial dilution in DMSO and added to the assay to give the appropriate final concentration. After a 60 minute incubation at 22° C., the extent of tracer displacement was determined using a PerkinElmer EnVision multimode plate reader via HTRF dual wavelength detection, and the percent of control (POC) was calculated using a ratiometric emission factor. One hundred POC was determined using no test compound, and 0 POC was determined in the presence of 1 μM of an appropriate control inhibitor. A 4-parameter logistic curve was fit to the POC values as a function of the concentration of compound, and the IC50 value was the point where the best-fit curve crossed 50 POC.

[1] = molecular target: recombinant human FGFR1 catalytic domain (Homo sapiens (Human), UniProt P11362); assay: FGFR Enzyme Activity Assay (LanthaScreen TR-FRET), FGFR1; type: biochemical; details: 15 μM ATP, 20 minutes incubation; read-out: FGFR1 Enz FRET IC50
Description: FGFR1 kinase activity was measured by the Invitrogen LanthaScreen™ Assay technology which directly measures the amount of substrate phosphorylation by Time-resolved fluorescence energy transfer (TR-FRET) using a flourescently-labeled peptide and Europium-labeled antibody. Briefly, 200 pM His-tagged recombinant human FGFR1 catalytic domain (amino acids 308-731) (Life Technologies Cat. No. PR4660A) was incubated with 100 nM Alexa Fluor® 647-Poly-GT Peptide Substrate (Life Technologies Cat. No. PV5836) and 15 μM ATP along with test compound in a buffer consisting of 250 mM HEPES, 25 mM MgCl2, 0.05% TritonX-100, pH 7.5, and 2% DMSO. Compounds were typically prepared in a threefold serial dilution in DMSO and added to the assay to give the appropriate final concentration. After a 20 minutes incubation at 22° C., an equal volume of 2 nM LanthaScreen® Eu-PY20 Antibody (Life Technologies Cat. No. PV5691) and 10 mM EDTA was added to quench the kinase reaction and start the detection reaction. After an additional 60 minute incubation at 22° C., the reaction was measured using a PerkinElmer EnVision multimode plate reader via TR-FRET dual wavelength detection, and the percent of control (POC) calculated using a ratiometric emission factor. 100 POC was determined using no test compounds and 0 POC was determined using no enzyme. The POC values were fit to a 4-parameter logistic curve as a function of the concentration of the compound, and the IC50 value is the point where the curve crosses 50 POC.

FGFR3 [2] = molecular target: T1, FGFR3 (Homo sapiens (Human), UniProt P22607); assay: FGFR Enzyme Activity Assay (LanthaScreen TR-FRET), FGFR3; type: biochemical; details: 25 μM ATP, 10 minute incubation; read-out: FGFR3 Enz FRET IC50
Description: FGFR3 kinase activity was measured by the Invitrogen LanthaScreen™ Assay technology which directly measures the amount of substrate phosphorylation by TR-FRET using a flourescently-labeled peptide and Europium-labeled antibody. Briefly, 750 pM N-terminal GST-HIS6 fusion protein with a 3C cleavage site recombinant human FGFR3 (amino acids R397-T806) (ProQinase Cat. No. 1068-0000-1) was incubated with 100 nM Alexa Fluor® 647-Poly-GT Peptide Substrate (Life Technologies Cat. No. PV5836) and 25 μM ATP along with test compound in a buffer consisting of 250 mM HEPES, 25 mM MgCl2, 0.05% TritonX-100, pH 7.5, and 2% DMSO. Compounds were typically prepared in a threefold serial dilution in DMSO and added to the assay to give the appropriate final concentration. After a 10 minute incubation at 22° C., an equal volume of 2 nM LanthaScreen® Eu-PY20 Antibody (Life Technologies Cat. No. PV5691) and 10 mM EDTA were added to quench the kinase reaction and start the detection reaction. After an additional 60 minute incubation at 22° C., the reaction was measured using a PerkinElmer EnVision multimode plate reader via TR-FRET dual wavelength detection, and the percent of control (POC) calculated using a ratiometric emission factor. 100 POC was determined using no test compounds and 0 POC was determined using no enzyme. The POC values were fit to a 4-parameter logistic curve as a function of the concentration of the compound, and the IC50 value is the point where the curve crosses 50 POC.
Target sequence in this assay (P22607 397-806): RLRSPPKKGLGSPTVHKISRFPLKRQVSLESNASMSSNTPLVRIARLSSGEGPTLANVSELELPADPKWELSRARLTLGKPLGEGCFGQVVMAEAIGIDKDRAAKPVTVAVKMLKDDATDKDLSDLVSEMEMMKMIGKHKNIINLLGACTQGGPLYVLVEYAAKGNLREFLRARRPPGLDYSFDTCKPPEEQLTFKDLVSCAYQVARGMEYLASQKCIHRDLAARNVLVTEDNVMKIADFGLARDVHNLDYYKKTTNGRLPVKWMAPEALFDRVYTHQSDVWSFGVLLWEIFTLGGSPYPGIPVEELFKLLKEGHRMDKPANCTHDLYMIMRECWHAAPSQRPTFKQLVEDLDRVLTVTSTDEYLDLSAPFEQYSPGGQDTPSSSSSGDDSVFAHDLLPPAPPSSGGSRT

FGFR3 [3] = molecular target: T1, FGFR3; assay: LC/MS FGFR3 kobs assay (covalent modification); type: biochemical; details: 500 nM FGFR3, 3 μM compound
Description: The LC/MS FGFR1 and FGFR3 kobs assays were conducted as follows. 500 nM FGFR1 (Array BioPharma construct p1702; SEQ ID NO: 1, amino acids 458-765) or FGFR3 (Array BioPharma construct p1700; SEQ ID NO: 5, amino acids 449-759) were incubated with 3 μM compound in 25 mM HEPES (4-(2-hydroxyethyl)-1-piperazineethanesulfonic acid), pH 7.4, 5 mM MgCl2, 150 mM NaCl, 0.5 mM TCEP (tris(2-carboxyethyl) phosphine), and 2% DMSO in a total volume of 20 μL. At each time point, the reaction was quenched with 20 μL of 0.4% formic acid. The extent of protein modification by each compound was determined by LC/MS on an Agilent Technologies 6520 Q-TOF LC/MS. Protein signals were then automatically deconvoluted using Agilent Masshunter software. Deconvoluted mass signals were exported to Tibco Spotfire data analysis program for further processing and normalization.
Data analysis included five steps. First, the signals for the “DMSO Controls” were analyzed to determine the percent of signal associated with unmodified FGFR1 or FGFR3 at each time point. Next, the percent of the signal associated with the covalent modification was determined. Third, the average nonmodified “DMSO Control” signal was used to normalize the modified protein signals at each time point. The percent of unmodified protein was fit to an exponential decay model where A0 is the Percent Unmodified at the start of the reaction, and kobs is the observed rate constant over the time period.
Target sequence in this assay (P22607 449-759): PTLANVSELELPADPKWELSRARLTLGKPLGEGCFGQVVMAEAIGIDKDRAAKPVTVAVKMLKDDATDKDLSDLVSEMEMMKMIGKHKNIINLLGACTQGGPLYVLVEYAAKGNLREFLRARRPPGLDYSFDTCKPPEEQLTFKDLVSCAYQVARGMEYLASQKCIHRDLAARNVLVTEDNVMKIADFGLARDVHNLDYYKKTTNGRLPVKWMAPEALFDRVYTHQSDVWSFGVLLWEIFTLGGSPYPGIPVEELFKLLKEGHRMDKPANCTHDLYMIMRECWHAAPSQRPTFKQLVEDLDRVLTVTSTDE

phosphorylated FGFR3, sequence (P22607 449-759): as above
recombinant human FGFR1 catalytic domain, sequence (P11362 other isoform, or with tags, fused parts or gaps): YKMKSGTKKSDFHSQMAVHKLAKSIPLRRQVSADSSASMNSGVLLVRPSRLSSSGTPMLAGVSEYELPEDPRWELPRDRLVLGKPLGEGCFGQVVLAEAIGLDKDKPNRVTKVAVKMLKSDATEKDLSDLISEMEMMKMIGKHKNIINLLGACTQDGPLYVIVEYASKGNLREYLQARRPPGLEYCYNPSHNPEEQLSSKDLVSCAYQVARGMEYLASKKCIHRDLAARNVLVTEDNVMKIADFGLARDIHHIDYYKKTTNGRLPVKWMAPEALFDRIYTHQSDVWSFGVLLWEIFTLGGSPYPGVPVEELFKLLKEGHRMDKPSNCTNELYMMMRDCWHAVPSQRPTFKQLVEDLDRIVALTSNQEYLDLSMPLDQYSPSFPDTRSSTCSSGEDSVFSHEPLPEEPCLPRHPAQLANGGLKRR

| SMILES | IC50 (phosphorylated FGFR3) [nM] | IC50 [1] [nM] | IC50 (FGFR3 [2]) [nM] | FGFR3 Enz kobs (FGFR3 [3]) [min⁻¹] |
| --- | --- | --- | --- | --- |
| C=CC(=O)N1CC(C(=O)N2CCC(n3cc(-c4cnc5ccc(Nc6cc(OC)cc(OC)c6)cc5n4)cn3)CC2)C1 [Example 1, 1-(3-(4-(4-(7-((3,5-dimethoxyphenyl)amino)quinoxalin-2-yl)-1H-pyrazol-1-yl)piperidine-1-carbonyl)azetidin-1-yl)prop-2-en-1-one] | 2 | 54 | 9 | 0.00945 |
| C=CC(=O)N1CC(C(=O)N2CCC(n3ncc(-c4cnc5ccc(Nc6cc(OC)cc(OC)c6)cc5n4)c3C)CC2)C1 [Example 18, 1-(3-(4-(4-(7-((3,5-dimethoxyphenyl)amino)-quinoxalin-2-yl)-5-methyl-1H-pyrazol-1-yl)piperi-dine-1-carbonyl)azetidin-1-yl)prop-2-en-1-one] | 18 | 1210 | 373 | 0.01462 |
| C=CC(=O)N1CC(C(=O)N2CCN(c3ccc(-c4cnc5ccc(Nc6cc(OC)cc(OC)c6)cc5n4)cn3)CC2)C1 [Example 5, 1-(3-(4-(5-(7-((3,5-dimethoxyphenyl)amino)-quinoxalin-2-yl)pyridin-2-yl)piperazine-1-carbonyl)azetidin-1-yl)-prop-2-en-1-one] | 59 | 448 | 272 | 0.01486 |
| C=CC(=O)N1CC(C(=O)N2CC(n3cc(-c4cnc5ccc(Nc6cc(OC)cc(OC)c6)cc5n4)cn3)C2)C1 [Example 16, 1-(3-(3-(4-(7-((3,5-dimethoxyphenyl)amino)-quinoxalin-2-yl)-1H-pyrazol-1-yl)azetidine-1-carbonyl)azetidin-1-yl)-prop-2-en-1-one] | 5 | 48 | 18 | 0.01232 |
| C=CC(=O)N1CC(F)(C(=O)N2CCN(c3ccc(-c4cnc5ccc(Nc6cc(OC)cc(OC)c6)cc5n4)cn3)CC2)C1 [Example 8, 1-(3-(4-(5-(7-((3,5-dimethoxyphenyl)amino)-quinoxalin-2-yl)pyridin-2-yl)piperazine-1-carbonyl)-3-fluoroazetidin-1-yl)-prop-2-en-1-one] | 30 | 831 | 631 | 0.06319 |
| C=CC(=O)N1CC(O)(C(=O)N2CCC(n3cc(-c4cnc5ccc(Nc6cc(OC)cc(OC)c6)cc5n4)cn3)CC2)C1 [Example 26, 1-(3-(4-(4-(7-((3,5-dimethoxyphenyl)amino)quinoxalin-2-yl)-1H-pyrazol-1-yl)piperidine-1-carbonyl)-3-hydroxyazetidin-1-yl)prop-2-en-1-one] | 6 | 118 | 14 | 0.01414 |
| COc1cc(Nc2ccc3ncc(-c4ccc(N5CCN(C(=O)C6(F)CN(C(=O)/C=C/CN(C)C)C6)CC5)nc4)nc3c2)cc(OC)c1 [Example 7, (E)-1-(3-(4-(5-(7-((3,5-dimethoxyphenyl)amino)-quinoxalin-2-yl)pyridin-2-yl)piperazine-1-carbonyl)-3-fluoroazetidin-1-yl)-4-(dimethylamino)but-2-en-1-one] | 11 | 364 | 277 | 0.1309 |
| C=CC(=O)N1CCC(C(=O)N2CCC(n3cc(-c4cnc5ccc(Nc6cc(OC)cc(OC)c6)cc5n4)cn3)CC2)CC1 [Example 3, 1-(4-(4-(4-(7-((3,5-dimethoxyphenyl)amino)-quinoxalin-2-yl)-1H-pyrazol-1-yl)piperidine-1-carbonyl)piperidin-1-yl)prop-2-en-1-one] | 5 | 51 | 10 | 0.00166 |
| C=CC(=O)N1CC(C#N)(C(=O)N2CCC(n3cc(-c4cnc5ccc(Nc6cc(OC)cc(OC)c6)cc5n4)cn3)CC2)C1 [Example 12, 1-acryloyl-3-(4-(4-(7-((3,5-dimethoxyphenyl)-amino)quinoxalin-2-yl)-1H-pyrazol-1-yl)-piperidine-1-carbonyl)-azetidine-3-carbonitrile] | 3 | 89 | 13 | 0.07246 |
| C=CC(=O)N1CC(OC)(C(=O)N2CCC(n3cc(-c4cnc5ccc(Nc6cc(OC)cc(OC)c6)cc5n4)cn3)CC2)C1 [Example 24, 1-(3-(4-(4-(7-((3,5-dimethoxyphenyl)amino)-quinoxalin-2-yl)-1H-pyrazol-1-yl)piperidine-1-carbonyl)-3-methoxy-azetidin-1-yl)prop-2-en-1-one] | 9 | 229 | 24 | 0.01322 |
| C=CC(=O)N1CC(F)(C(=O)N2CCN(c3cc(C)c(-c4cnc5ccc(Nc6cc(OC)cc(OC)c6)cc5n4)cn3)CC2)C1 [Example 15, 1-(3-(4-(5-(7-((3,5-dimethoxyphenyl)amino)-quinoxalin-2-yl)-4-methylpyridin-2-yl)-piperazine-1-carbonyl)-3-fluoroazetidin-1-yl)prop-2-en-1-one] | 116 | 5000 | 5000 | 0.0172 |
